Molecules are shown by their SMILES.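 In this assay, cells in 96-well plates receive the compound at five concentrations for 48 hours. Endpoints are linearly interpolated between the surrounding concentrations. Abbreviation: GI50, concentration required for 50% inhibition of growth. TGI is the concentration that stops growth completely.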 Bounds are passed on as bounds.

Some test systems named below: CAKI-1 renal; IGROV1 ovarian; KM12 colon; LOX IMVI melanoma; MDA-MB-231 breast; NCI/ADR-RES ovarian; OVCAR-4 ovarian; SK-MEL-5 melanoma; TK-10 renal; T-47D breast.
Holding throughout (experiment): NCI-60 cell line screen, 48 h

Turning to `CC(NC(=O)C(N)CC(=O)O)NC(=O)N1CCOCC1` (stereo not drawn), the TGI in the experiment with CAKI-1 renal, in the experiment on IGROV1 ovarian, with KM12 colon, in the experiment with LOX IMVI melanoma, with MDA-MB-231 breast and in the experiment on NCI/ADR-RES ovarian was more than 100 µM in each case. In addition, the TGI in the experiment on OVCAR-4 ovarian, in the experiment on SK-MEL-5 melanoma and in the experiment with TK-10 renal was more than 100 µM each time.
On to `Nc1nc(N)c2nnn(C[C@H]3CC[C@@H](CO)C3)c2n1`, for which the TGI in the experiment with CAKI-1 renal, in the experiment with IGROV1 ovarian, in the experiment on KM12 colon, in the experiment with LOX IMVI melanoma, in the experiment with MDA-MB-231 breast and with NCI/ADR-RES ovarian was more than 100 µM in each case. Further, in the experiment on TK-10 renal, the TGI was more than 100 µM.
As for `COc1cc(/C=C/C(=O)N[C@@H]2C(=O)N3[C@@H]2SC(C)(C)[C@@H]3C(=O)O)cc(OC)c1OC`, the TGI in the experiment with CAKI-1 renal, in the experiment with KM12 colon, in the experiment on LOX IMVI melanoma, in the experiment with MDA-MB-231 breast, in the experiment with NCI/ADR-RES ovarian and in the experiment on OVCAR-4 ovarian was more than 100 µM throughout. Also, the TGI in the experiment on SK-MEL-5 melanoma, in the experiment with T-47D breast and in the experiment with TK-10 renal was more than 100 µM each time.
As to `O=C1/C(=C/c2cccs2)NC(=S)N1CN1CCOCC1`, the TGI with IGROV1 ovarian, in the experiment on KM12 colon, in the experiment with LOX IMVI melanoma, with MDA-MB-231 breast, in the experiment with NCI/ADR-RES ovarian and with SK-MEL-5 melanoma was more than 100 µM each time. In the experiment with TK-10 renal, this molecule showed a TGI of more than 100 µM.
Regarding `Fc1cc(-c2ncc(Cl)cc2Cl)c2cccccc1-2`, the TGI in the experiment with CAKI-1 renal, in the experiment on IGROV1 ovarian, with KM12 colon, in the experiment with LOX IMVI melanoma, in the experiment on MDA-MB-231 breast and in the experiment with NCI/ADR-RES ovarian was more than 100 µM in each case. Moreover, the TGI with SK-MEL-5 melanoma and in the experiment on TK-10 renal was more than 100 µM each time.
For `COc1cc2c(cc1OC)C(Cc1ccccc1CCCl)=NCC2`, the TGI in the experiment on CAKI-1 renal, in the experiment with IGROV1 ovarian, in the experiment with KM12 colon, in the experiment with MDA-MB-231 breast, in the experiment on NCI/ADR-RES ovarian and in the experiment with OVCAR-4 ovarian was more than 100 µM each time. In addition, the TGI with SK-MEL-5 melanoma is 54.3 µM; with T-47D breast it was more than 100 µM; in the experiment with TK-10 renal it was more than 100 µM.
For `O=C(N/N=C\c1ccc([N+](=O)[O-])cc1)c1ccccc1Nc1ccccc1C(=O)N/N=C/c1ccc([N+](=O)[O-])cc1`, the TGI in the experiment on CAKI-1 renal was more than 100 µM; with IGROV1 ovarian, more than 100 µM; with KM12 colon, more than 100 µM; in the experiment with MDA-MB-231 breast, 95.1 µM; in the experiment on NCI/ADR-RES ovarian it was more than 100 µM; in the experiment on OVCAR-4 ovarian it was more than 100 µM. Moreover, the TGI in the experiment on SK-MEL-5 melanoma, in the experiment on T-47D breast and in the experiment on TK-10 renal was more than 100 µM in each case.
On to `Cc1ccc([N+](=O)[O-])cc1S(=O)(=O)Nc1ccc(C2=NNC(c3cccs3)C2)cc1` (stereo not drawn), for which the TGI in the experiment on CAKI-1 renal is more than 100 µM; with IGROV1 ovarian it was more than 100 µM; in the experiment with KM12 colon it was 76.1 µM; in the experiment with LOX IMVI melanoma, more than 100 µM; with NCI/ADR-RES ovarian it was 94.6 µM; in the experiment with OVCAR-4 ovarian it was more than 100 µM. The TGI with SK-MEL-5 melanoma amounted to 46.3 µM; in the experiment with T-47D breast, 43.4 µM.
Regarding `CCOC(=O)C(C)(C)/C=C\C(Cl)=C(Cl)Cl`, the TGI with CAKI-1 renal, with IGROV1 ovarian, in the experiment on KM12 colon, with LOX IMVI melanoma, with MDA-MB-231 breast and in the experiment with NCI/ADR-RES ovarian was more than 100 µM in each case. Besides, the TGI in the experiment on SK-MEL-5 melanoma and in the experiment on TK-10 renal was more than 100 µM throughout.
On to `O=c1c(O)c(-c2cc(O)c(O)cc2O)oc2cc(O)c(C3OC(CO)C(O)C(O)C3O)c(O)c12` (stereo not drawn), for which the TGI with IGROV1 ovarian, with KM12 colon, in the experiment with LOX IMVI melanoma, in the experiment on MDA-MB-231 breast, in the experiment with NCI/ADR-RES ovarian and with OVCAR-4 ovarian was more than 100 µM each time. The TGI with T-47D breast and in the experiment on TK-10 renal was more than 100 µM each time.
Turning to `COC(=O)c1cc2c3c(cc(O)c2[nH]1)N(C(=O)C1Cc2cc(OC)c(OC)c(OC)c2N1)CC3CCl` (stereo not drawn), the GI50 in the experiment on IGROV1 ovarian, in the experiment with KM12 colon, in the experiment on LOX IMVI melanoma, in the experiment on NCI/ADR-RES ovarian, in the experiment with OVCAR-4 ovarian and in the experiment on SK-MEL-5 melanoma was less than 10 nM each time. Further, the GI50 with T-47D breast and with TK-10 renal was less than 10 nM in each case. Further, the TGI is 0.98 µM in the experiment on IGROV1 ovarian; 0.0142 µM in the experiment with KM12 colon; 0.291 µM in the experiment with LOX IMVI melanoma; more than 100 µM in the experiment with NCI/ADR-RES ovarian; 0.845 µM with OVCAR-4 ovarian; less than 0.01 µM in the experiment with SK-MEL-5 melanoma. The TGI with T-47D breast and in the experiment on TK-10 renal was less than 0.01 µM each time.
For the molecule `COc1ccc(N=C2C(=Nc3ccc(OC)cc3)N(S(=O)(=O)c3ccccc3)C(=S)N2c2ccc(OC)cc2)cc1`, the TGI was more than 100 µM with CAKI-1 renal; more than 100 µM with IGROV1 ovarian; more than 100 µM in the experiment with KM12 colon; 92.1 µM in the experiment on MDA-MB-231 breast; more than 100 µM in the experiment on NCI/ADR-RES ovarian; more than 100 µM with SK-MEL-5 melanoma. Also, the TGI in the experiment with T-47D breast and in the experiment on TK-10 renal was more than 100 µM each time.
Take `NC(Cc1c[nH]c2ccccc12)C(=O)O` (stereo not drawn): the TGI in the experiment with CAKI-1 renal, with IGROV1 ovarian, in the experiment with KM12 colon, with LOX IMVI melanoma, in the experiment on NCI/ADR-RES ovarian and in the experiment with OVCAR-4 ovarian was more than 300 µM each time. Moreover, in the experiment with SK-MEL-5 melanoma, the TGI was more than 300 µM.
With `Cc1ccc(O)c(-c2csc(NCN3CCN(CNc4nc(-c5cc(C)ccc5O)cs4)CC3)n2)c1`, the TGI with CAKI-1 renal, in the experiment with IGROV1 ovarian, in the experiment on KM12 colon, with LOX IMVI melanoma, in the experiment on MDA-MB-231 breast and in the experiment on NCI/ADR-RES ovarian was more than 100 µM throughout. Also, the TGI in the experiment with OVCAR-4 ovarian, in the experiment on SK-MEL-5 melanoma and with TK-10 renal was more than 100 µM each time.
For `Nc1nc(N)c2nc(-c3ccco3)cnc2n1`, the TGI with CAKI-1 renal, in the experiment on IGROV1 ovarian, in the experiment on KM12 colon, with LOX IMVI melanoma, in the experiment on SK-MEL-5 melanoma and with TK-10 renal was more than 100 µM throughout.

The values above are taken from PubChem BioAssay (NCI).
